The results in this text go back to publication PMC3953730 (FEBS Open Bio, 2014).

For the assay, the target named is β-secretase 1 (BACE1) (Homo sapiens, UniProt P56817). In words: in vitro fluorogenic peptide cleavage assay, dose response. It counts as biochemical.

Broadly, the IC50 is the concentration that inhibits the measured activity by half. Read a low IC50 as inhibition by little substance.

Sequence of β-secretase 1 (BACE1) (P56817 46-457): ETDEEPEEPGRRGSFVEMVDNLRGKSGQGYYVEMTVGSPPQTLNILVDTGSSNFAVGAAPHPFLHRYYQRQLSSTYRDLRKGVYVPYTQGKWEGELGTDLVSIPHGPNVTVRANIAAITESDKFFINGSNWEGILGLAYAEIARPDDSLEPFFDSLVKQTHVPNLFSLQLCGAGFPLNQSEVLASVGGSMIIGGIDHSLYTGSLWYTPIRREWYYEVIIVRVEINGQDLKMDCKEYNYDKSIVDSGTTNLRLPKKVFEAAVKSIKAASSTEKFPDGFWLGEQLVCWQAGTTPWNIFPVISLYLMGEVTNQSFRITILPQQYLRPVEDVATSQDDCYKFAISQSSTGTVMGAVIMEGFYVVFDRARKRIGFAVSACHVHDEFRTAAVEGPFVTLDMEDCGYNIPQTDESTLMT

Compound `O=P(O)(O)O[C@H]1[C@H](OP(=O)(O)O)[C@@H](OP(=O)(O)O)[C@H](OP(=O)(O)O)[C@@H](OP(=O)(O)O)[C@H]1OP(=O)(O)O` [IP6, myo-inositol hexakisphosphate] returned an IC50 of around 250 nM.
